# Laboratory results: ChEMBL document CHEMBL5113435, “Development of an automated screen for Kv7.2 potassium channels and discovery of a new agonist chemotype” (Bioorg Med Chem Lett, 2022)
# What was measured:
# [1] = target: T1, Potassium voltage-gated channel subfamily KQT member 2 (Homo sapiens, UniProt O43526); assay: Agonist activity at Kv7.2 (unknown origin) assessed as shifting of voltage dependent activation to more negative potentials by SyncroPatch assay
# [2] = target: T1, Potassium voltage-gated channel subfamily KQT member 2; settings: filed as agonist, dose 5.0 µM
# Description: Agonist activity at Kv7.2 (unknown origin) assessed as shifting of voltage dependent activation to more negative potentials at 5 uM by SyncroPatch assay
# [3] = species on record: Homo sapiens; settings: filed as agonist, dose 5.0 µM
# Description: Agonist activity at Kv7.2 W236L mutant (unknown origin) assessed as shifting of voltage dependent activation to more negative potentials at 5 uM by SyncroPatch assay
# [4] = target: T2, Potassium voltage-gated channel subfamily KQT member 4 (Homo sapiens, UniProt P56696); assay: Agonist activity at Kv7.4 (unknown origin) expressed in CHO cells co-expressing GFP; format: cell-based
# T2 sequence (P56696 whole entry): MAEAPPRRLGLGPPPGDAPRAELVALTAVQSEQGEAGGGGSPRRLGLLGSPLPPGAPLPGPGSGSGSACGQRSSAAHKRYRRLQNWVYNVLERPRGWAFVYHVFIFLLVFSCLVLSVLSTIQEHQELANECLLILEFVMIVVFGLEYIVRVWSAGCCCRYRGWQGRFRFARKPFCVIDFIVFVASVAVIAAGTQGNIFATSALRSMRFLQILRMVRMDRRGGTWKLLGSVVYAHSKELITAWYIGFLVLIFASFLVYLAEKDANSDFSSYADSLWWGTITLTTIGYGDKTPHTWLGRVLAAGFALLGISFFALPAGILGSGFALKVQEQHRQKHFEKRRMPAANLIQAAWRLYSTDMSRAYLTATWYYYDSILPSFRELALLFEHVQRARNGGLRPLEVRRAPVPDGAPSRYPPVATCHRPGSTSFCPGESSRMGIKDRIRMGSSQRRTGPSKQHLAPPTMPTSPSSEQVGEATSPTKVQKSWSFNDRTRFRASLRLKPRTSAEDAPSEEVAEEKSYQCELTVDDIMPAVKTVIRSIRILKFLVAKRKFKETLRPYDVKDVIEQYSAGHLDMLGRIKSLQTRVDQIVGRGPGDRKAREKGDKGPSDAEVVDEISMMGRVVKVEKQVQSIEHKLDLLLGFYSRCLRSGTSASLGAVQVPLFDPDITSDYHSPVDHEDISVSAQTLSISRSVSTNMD
# [5] = target: Potassium voltage-gated channel subfamily KQT member 5 (Homo sapiens, UniProt Q9NR82); assay: Agonist activity at Kv7.5 (unknown origin) expressed in CHO cells co-expressing GFP; format: cell-based
# [6] = target: Voltage-gated potassium channel, KQT; KCNQ2(Kv7.2)/KCNQ3(Kv7.3) (Homo sapiens, UniProt O43525+O43526); assay: Agonist activity at Kv7.2/3 (unknown origin) expressed in CHO cells co-expressing GFP; format: cell-based
# [7] = species on record: Homo sapiens; assay: Selectivity index, ratio of EC50 for agonist activity at Kv7.4 (unknown origin) expressed in CHO cells co-expressing GFP to EC50 for agonist activity at Kv7.2/3 (unknown origin) expressed in CHO cells co-expressing GFP; format: cell-based
# [8] = species on record: Homo sapiens; assay: Selectivity index, ratio of EC50 for agonist activity at Kv7.5 (unknown origin) expressed in CHO cells co-expressing GFP to EC50 for agonist activity at Kv7.2/3 (unknown origin) expressed in CHO cells co-expressing GFP; format: cell-based
# T1 sequence (O43526 whole entry): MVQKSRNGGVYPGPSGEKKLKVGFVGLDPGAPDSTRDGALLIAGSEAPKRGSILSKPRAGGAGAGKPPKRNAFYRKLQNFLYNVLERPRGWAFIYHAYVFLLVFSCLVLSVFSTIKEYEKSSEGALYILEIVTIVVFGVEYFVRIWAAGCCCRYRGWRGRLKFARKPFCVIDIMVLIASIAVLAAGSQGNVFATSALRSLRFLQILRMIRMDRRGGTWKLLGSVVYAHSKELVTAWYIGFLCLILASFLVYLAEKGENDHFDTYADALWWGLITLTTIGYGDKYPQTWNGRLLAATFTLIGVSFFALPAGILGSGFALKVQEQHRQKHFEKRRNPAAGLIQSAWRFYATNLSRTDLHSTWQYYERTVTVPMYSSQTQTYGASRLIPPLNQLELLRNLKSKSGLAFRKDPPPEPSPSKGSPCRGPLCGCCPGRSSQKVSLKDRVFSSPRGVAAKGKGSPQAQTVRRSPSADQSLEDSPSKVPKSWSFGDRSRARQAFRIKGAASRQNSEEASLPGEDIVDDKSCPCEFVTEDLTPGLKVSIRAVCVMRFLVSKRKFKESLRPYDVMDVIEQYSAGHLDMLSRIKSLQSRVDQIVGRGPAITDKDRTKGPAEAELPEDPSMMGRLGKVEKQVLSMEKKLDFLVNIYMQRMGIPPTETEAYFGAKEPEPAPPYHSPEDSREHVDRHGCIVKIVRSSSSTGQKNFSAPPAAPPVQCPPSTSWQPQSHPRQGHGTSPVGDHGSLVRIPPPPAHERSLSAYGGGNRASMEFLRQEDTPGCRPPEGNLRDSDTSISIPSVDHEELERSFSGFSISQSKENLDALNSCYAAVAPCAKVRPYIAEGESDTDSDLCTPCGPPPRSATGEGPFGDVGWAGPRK
# Sequence of Potassium voltage-gated channel subfamily KQT member 5 (Q9NR82 whole entry): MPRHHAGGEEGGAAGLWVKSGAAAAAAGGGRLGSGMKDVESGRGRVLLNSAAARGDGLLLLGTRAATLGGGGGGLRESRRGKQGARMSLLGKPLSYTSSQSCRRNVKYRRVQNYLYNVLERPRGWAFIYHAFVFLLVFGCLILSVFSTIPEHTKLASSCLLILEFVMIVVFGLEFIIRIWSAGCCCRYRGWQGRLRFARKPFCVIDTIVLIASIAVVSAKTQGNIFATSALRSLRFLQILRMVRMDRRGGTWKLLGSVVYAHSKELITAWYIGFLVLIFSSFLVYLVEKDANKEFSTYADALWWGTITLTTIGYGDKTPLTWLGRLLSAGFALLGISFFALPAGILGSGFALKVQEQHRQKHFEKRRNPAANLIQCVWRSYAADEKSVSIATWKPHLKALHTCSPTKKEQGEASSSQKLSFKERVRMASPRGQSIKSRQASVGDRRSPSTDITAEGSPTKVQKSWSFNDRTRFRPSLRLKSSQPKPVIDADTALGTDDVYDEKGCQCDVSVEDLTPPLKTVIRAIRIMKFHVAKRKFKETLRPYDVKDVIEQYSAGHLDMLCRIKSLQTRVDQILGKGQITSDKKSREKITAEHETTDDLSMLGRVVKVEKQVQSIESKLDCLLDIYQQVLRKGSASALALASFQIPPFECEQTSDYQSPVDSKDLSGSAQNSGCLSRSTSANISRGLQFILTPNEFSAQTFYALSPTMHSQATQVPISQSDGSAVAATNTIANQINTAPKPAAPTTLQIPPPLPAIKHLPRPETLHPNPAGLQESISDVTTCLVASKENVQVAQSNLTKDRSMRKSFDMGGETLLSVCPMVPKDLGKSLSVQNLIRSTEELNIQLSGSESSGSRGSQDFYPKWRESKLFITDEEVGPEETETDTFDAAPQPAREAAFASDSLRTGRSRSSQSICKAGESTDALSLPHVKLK
# Sequence of Voltage-gated potassium channel, KQT; KCNQ2(Kv7.2)/KCNQ3(Kv7.3) (O43526 whole entry): as the sequence (O43526 whole entry) above
# Sequence of Voltage-gated potassium channel, KQT; KCNQ2(Kv7.2)/KCNQ3(Kv7.3) (O43525 whole entry): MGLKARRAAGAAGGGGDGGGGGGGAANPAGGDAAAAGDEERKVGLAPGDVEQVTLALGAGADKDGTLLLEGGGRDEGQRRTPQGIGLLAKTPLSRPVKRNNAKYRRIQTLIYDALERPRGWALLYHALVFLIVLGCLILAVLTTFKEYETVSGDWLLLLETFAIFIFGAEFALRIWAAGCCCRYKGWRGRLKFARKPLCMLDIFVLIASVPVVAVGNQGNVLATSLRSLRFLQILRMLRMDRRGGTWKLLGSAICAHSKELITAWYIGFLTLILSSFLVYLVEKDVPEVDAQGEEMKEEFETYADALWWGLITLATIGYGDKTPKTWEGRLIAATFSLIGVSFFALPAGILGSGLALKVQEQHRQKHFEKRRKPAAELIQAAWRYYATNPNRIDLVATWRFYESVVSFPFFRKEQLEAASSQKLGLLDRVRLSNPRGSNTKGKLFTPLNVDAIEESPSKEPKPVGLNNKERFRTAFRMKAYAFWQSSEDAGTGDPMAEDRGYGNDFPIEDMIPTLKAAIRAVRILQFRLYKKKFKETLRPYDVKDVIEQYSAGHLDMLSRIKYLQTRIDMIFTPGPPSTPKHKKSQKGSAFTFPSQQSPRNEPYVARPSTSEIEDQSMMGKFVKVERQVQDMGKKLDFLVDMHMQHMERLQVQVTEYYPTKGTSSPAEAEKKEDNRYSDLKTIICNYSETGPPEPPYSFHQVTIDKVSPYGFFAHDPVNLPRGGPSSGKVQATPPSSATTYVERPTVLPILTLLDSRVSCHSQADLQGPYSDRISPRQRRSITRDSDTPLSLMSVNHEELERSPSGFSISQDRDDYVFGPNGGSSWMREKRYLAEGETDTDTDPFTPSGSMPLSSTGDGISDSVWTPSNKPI
SMILES,V1/2 [2] [mV],V1/2 [3] [mV],other results
CCOC(=O)Nc1ccc(NCc2ccc(F)cc2)cc1N [EZOGABINE],-34.3,4.2,EC50 [1]: 4210 nM
COc1ccc(CNc2cc3ccccc3c(=O)[nH]2)cc1,-3,1.3,–
O=C(Nc1ccc2[nH]c(-c3ccc(C(F)(F)F)cc3)cc2c1)OC1CC1,6.2,4.7,–
COc1ccc2c(c1)[C@@H](NC(C)=O)[C@H](C)[C@@H](c1ccccc1)N2C(=O)Nc1ccc(C(F)(F)F)cc1,10,-2.7,–
CCOC(=O)Nc1ccc2[nH]c(-c3ccc(F)cc3)cc2c1,-0.66,2.5,–
CCOC(=O)Nc1ccc(NCc2ccc(F)cc2)nc1N,-23.8,1.2,–
Nc1c(F)c(NCc2ncc(C(F)(F)F)cc2F)c(F)c(F)c1NC(=O)OC1CC1,–,–,EC50 [4]: 320 nM; EC50 [5]: 3780 nM
CC[C@H]1Nc2ccc(OC)cc2[C@@H](NS(C)(=O)=O)[C@@H]1C,-3,2.8,–
CCOC(=O)Nc1cc(F)c(NCc2ccc(C(F)(F)F)cc2)c(F)c1N,–,–,EC50 [4]: 87 nM; EC50 [5]: 1060 nM
COc1ccc2c(c1)[C@@H](NC(=O)OCc1ccccc1)[C@H](C)[C@@H](c1ccccc1)N2C(=O)NC(C)C,6.2,4.9,–
CC(C)OC(=O)Nc1ccc2[nH]c(-c3ccc(C(F)(F)F)cc3)cc2c1,-3.2,-0.31,–
CCOC(=O)Nc1ccc(NCc2ccc(C(F)(F)F)cc2)c(F)c1N,-48.1,1.9,V1/2 ([2]; tested as the 2H-labelled form): -45.2 mV; V1/2 ([3]; tested as the 2H-labelled form): -4.4 mV
COc1ccc2c(c1)[C@@H](NC(C)=O)[C@H](C)[C@@H](c1ccccc1)N2C(C)=O,2.5,0.26,–
CC(C)(C)CC(=O)Nc1ccc2[nH]c(-c3ccc(C(F)(F)F)cc3)cc2c1,-4.1,3.2,–
O=C(Cc1ccc(OC(F)(F)F)cc1)Nc1ccc2[nH]c(-c3ccc(C(F)(F)F)cc3)cc2c1,-8.9,3.9,–
CCOC(=O)Nc1cc(F)c2c(c1N)S(=O)(=O)CC(c1ccccc1)N2 (stereo unspecified),4.4,2.8,–
CCOC(=O)Nc1ccc2[nH]c(-c3ccc(C(F)(F)F)cc3)cc2c1,-4.8,-6,–
Nc1c(NC(=O)OC2CC2)ccc(NCc2ccc(C(F)(F)F)cc2)c1F,-44.9,-9.3,EC50 [1]: 3030 nM; EC50 [6]: 18 nM; EC50 [4]: 910 nM; EC50 [5]: 3780 nM; Ratio EC50 [7]: 50; Ratio EC50 [8]: 50
CCOC(=O)Nc1ccc(NCc2ccc(C(F)(F)F)nc2)c(F)c1N,–,–,EC50 [6]: 3360 nM; EC50 [4]: 660 nM; EC50 [5]: 540 nM
[2H]c1cc(NC(=O)OCC)c(N)c(F)c1NCc1ccc(C(F)(F)F)cc1,–,–,EC50 [1]: 980 nM
O=C(Cc1cc(F)cc(F)c1)Nc1ccc2[nH]c(-c3ccc(C(F)(F)F)cc3)cc2c1,-1.1,2.4,–
